≈ marks a conversion by molar mass, not a printed value.
Tests used:
[1] = system: E. coli expressing HaloTag; experiment: BaCAPA control: labeling with chloroalkane-tagged dye; format: cell-based, Escherichia coli; conditions: 5 μM dye, compared with R110cl, FIG. 2C
Experimental: In an embodiment, fluorescence levels were determined in bacterial cells that express HaloTag proteins in the cytosol by encoding the protein on an inducible plasmid. Bacterial cells carrying the HaloTag-expressing plasmid were grown to mid-log, induced with isopropyl-β-D-1-thiogalactopyranoside (IPTG), and incubated with a fluorophore modified chloroalkane. Cytosolic HaloTag promotes the formation of a covalent bond with the fluorophore-linked chloroalkane tail (FIG. 2A). Total labeling levels of bacterial cells is then quantified using flow cytometry. In a first step in the BaCAPA, bacterial cells were treated with Rhodamine 110 modified with chloroalkane (R110cl). […] Appreciating that the fluorophore itself could be subject to the same barrier elements that are inherent to E. coli, there was also evaluated the labeling of bacterial cells with a smaller fluorophore, namely coumarin (COMcl). […] While it was clear that coumarin could also covalently modify HaloTag-expressing bacterial cells, the relative fluorescence increase was more modest in cells treated with COMcl (FIG. 2C). […]
To empirically establish the dye concentration that optimizes the signal output for the assay, bacterial cells were treated with a range of R110cl concentrations (FIG. 2D). […] HaloTag labeling with R110cl can be analyzed from the whole cellular proteome because of the selectivity of this enzymatic reaction. […]

[2] = system: E. coli expressing HaloTag; experiment: Bacterial ChloroAlkane Penetration Assay (BaCAPA) pulse-chase, flow cytometry; format: cell-based, Escherichia coli; conditions: for EC50: Escherichia coli, pulse with chloroalkane-tagged molecule, IPTG induced, flow cytometry, read-out: EC50 (apparent accumulation/permeation, BaCAPA)
Description: This method relies on the genetically encoded HaloTag^24, a mutant form of a bacterial haloalkane dehalogenase that facilitates covalent bond formation with chloroalkane-linked ligands (FIG. 1). […] The assay is based on the expression of the HaloTag protein inside bacterial cells, which are exposed to molecules of interest linked to a chloroalkane tag. If the molecules reach the HaloTag proteins inside the bacteria, they will be covalently bound to the protein. This pulse step is followed by a chase step with a fluorophore-linked chloroalkane. […] Conversely, when a large fraction of molecules of interest permeate the cell membranes and reach the HaloTag proteins, there will be reduced sites available to react with the fluorophore.
In some embodiments, the BaCAPA process can report on apparent accumulation of small molecules past the cellular envelope. In these embodiments, (non-fluorescent) small molecules modified with the chloroalkane are incubated with the bacterial cells expressing HaloTag first (pulse step), which is then followed by a treatment step with the dye R110cl (chase step).
HaloTag Protein Expression: Cytoplasmic HaloTag protein. For expression of the HaloTag protein in E. coli, HaloTag expression plasmid Cyto_Halo_pET21(b)+ was transformed into E. coli BL21(DE3) and grown on an LB/agar plate with ampicillin (100 μg/mL) at 37° C. overnight. Colonies were picked and grown in 5 mL LB broth with ampicillin at 37° C. overnight. A culture tube containing 2 mL LB media was inoculated with the overnight culture at a ratio of 1:100 and cells were grown at 37° C. for 3 h hours, or until the optical density at 600 nm reached 0.6. Cultures were induced with 1 mM Isopropyl β-d-1-thiogalactopyranoside (IPTG) at 37° C. for 2 hours in a shaker incubator, and then pelleted at 4,000 rpm for 3 min in an HERAEUS Multicentrifuge X1 centrifuge (Thermofisher Scientific). The pellet was washed three times with 1×PBS pH 7.2 following which cells were ready for assaying. The identity of the protein was confirmed by SDS-PAGE.
BaCAPA Pulse-Chase Protocol (chloroalkane-tagged molecule, chloroalkane-tagged dye). For a bacterial chloroalkane penetration assay (BaCAPA), 25 μL of serially diluted samples of the chloroalkane-tagged test molecule, in quadruplicate, were transferred into a 96-well plate at 2× of the desired concentration. The pellet obtained from the washing step above was resuspended in 2 mL of 1×PBS by vortexing thoroughly. […]

E. coli = experiment: Minimum Inhibitory Concentration; format: cell-based, Escherichia coli; conditions: for MIC: Escherichia coli, 24 h, 37° C., MH media
Experimental: For all biological assays, laboratory strains of wild type E. coli (ATCC 25922), and K12 E. coli strains BL21(DE3) and E. coli Lemo21(DE3) were grown with shaking at 37° C. overnight from freezer glycerol stocks in 5 mL of Luria Broth (LB) media.
Minimum Inhibitory Concentration. Compounds were serially diluted 2-fold from stock solutions to yield 12 test concentrations in U-bottom, 96-well plates. Overnight cultures were used to inoculate LB media 1:100 and regrown to exponential phase, as determined by optical density recorded at 600 nm (OD600). All cultures were diluted again to ca. 10^6 CFU/mL in MH media, and 100 μL was inoculated into each well of a U-bottom 96-well plate (BD Biosciences, BD 351177) containing 100 μL of compound solution (in line with CLSI Standards).^4Plates were incubated statically at 37° C. for 24 h upon which time wells were evaluated visually for bacterial growth. The MIC was determined as the lowest concentration of compound resulting in no bacterial growth visible to the naked eye, based on the majority of three independent experiments. Growth and sterility controls were conducted for each plate.

E. coli outer membrane = experiment: Outer membrane disruption: co-treatment with R110cl in BaCAPA; format: cell-based, Escherichia coli; conditions: for cellular fluorescence on co-incubation with R110cl: various concentrations, 5 μM R110cl, FIG. 3A/3B
Description: It is well appreciated that the OM is the major barrier to the permeation of small molecules.^28 Considerable efforts have been devoted to the discovery of molecules that disrupt the OM barrier as antibiotic adjuvants with the goal of potentiating them and/or circumventing resistance.^29-31 Therefore, these agents hold the promise of synergistically enhancing the permeation of potential antibiotics in a broad and, potentially, impactful way.
While there was a decrease in signal-to-noise, the signal strength in the presence of IPTG was well above that in the absence of IPTG.
Polymyxin nonapeptide (PMBN) mediated bacterial chloroalkane-tagged molecule penetration. For the PMBN-mediated penetration assay, 25 μL of the desired PMBN concentration was added into the wells of a 96-well plate at 3× the final concentration along with 25 μL of the HaloTag protein cell suspension (both IPTG induced and non-induced cells). Next, 25 μL of the serially diluted samples of the chloroalkane-tagged test molecule was added into the wells at 3× the desired final concentration, in quadruplicate. The plates were incubated at 37° C. with shaking at 250 RPM. After 30 min, the plate was centrifuged to pellet the cells using a Jouan C4i centrifuge (Thermofisher Scientific). The supernatant was discarded, and the pellet was washed twice with PBS. The chase step followed by addition into each test well, 50 μL of […] chloroalkane-tagged rhodamine 110 and incubated for 30 min at 37° C. with shaking in a shaker incubator at 250 RPM. The plate was centrifuged to pellet the cells and cells were washed three times with PBS and fixed with 4% formaldehyde by incubating at room temperature for 30 min. The cells were analyzed by flow cytometry on the Attune NXT Acoustic Focusing Cytometer (Invitrogen) by exciting using the blue laser ([…]).

With `Cc1c(CC(=O)NCCOCCOCCCCCCCl)c(=O)oc2cc(N)ccc12` [COMcl] the “relative fluorescence increase in HaloTag-expressing cells” value [1] was “more modest”.

For `Cl.NCCOCCOCCCCCCCl` [Compound 1, 2-(2-((6-Chlorohexyl)oxy)ethoxy)ethanamine hydrochloride], the EC50 ([2]; chase with 5 μM R110cl) was ~5 µM and the “concentration at which nearly background fluorescence levels were observed” value ([2]; concentration scan, chase with 5 μM R110cl) was 12 µM.

`C[N+](C)(C)CC(=O)NCCOCCOCCCCCCCl` [Compound 5, HaloTag-betainamide] was tested, and the “relative accumulation in E. coli” value ([2]; methylation series of amino group, FIG. 4A) was “statistically significant lowered accumulation level”.

For `O=C(CCC(=O)N1CCN(c2cc3c(cc2F)c(=O)c(C(=O)O)cn3C2CC2)CC1)NCCOCCOCCCCCCCl` [Compound 6], the EC50 ([2]; chase with 5 μM R110cl) was 42.2 µM and the MIC (E. coli) was 0.5 µg/mL (≈ 0.785 µM).

Work on `O=C(CN1CCN(c2cc3c(cc2F)c(=O)c(C(=O)O)cn3C2CC2)CC1)NCCOCCOCCCCCCCl` [Compound 7] yielded an MIC (E. coli) of 0.5 µg/mL (≈ 0.84 µM).

With `O=C(NCCOCCOCCCCCCCl)c1cn(C2CC2)c2cc(N3CCNCC3)c(F)cc2c1=O` [Compound 8, Ciprofloxacin-carboxy-HaloTag amide] the MIC (E. coli) was 4 µg/mL (≈ 7.45 µM) and the “increase of MIC value” (E. coli; relative to derivatives 6 and 7) was 8 fold.

For `Clc1cccc(CN=C2Nc3ccccc3NC23CCNCC3)c1` [liproxstatin], the “cellular fluorescence on co-incubation with R110cl” value (E. coli outer membrane) was “increase in cellular fluorescence”.

For polymyxin B nonapeptide [PMBN], the “cellular fluorescence relative to cells not treated with PMBN” value (E. coli outer membrane; 10 μM of PMBN, co-treatment with R110cl) was “double”, the “cellular fluorescence on co-incubation with R110cl” value (E. coli outer membrane) was “concentration-dependent increase in cellular fluorescence” and the bacterial viability (E. coli cells) was “no loss of bacterial viability”.
